Reference: PubChem BioAssay AID435029 (Sanford-Burnham Center for Chemical Genomics, 2010)
Active and inactive are the calls of the source. How the calls were made is not given here.

System: HIV Env-mediated cell-cell fusion, luminescence reporter
Test: HIV Env-driven cell-cell fusion inhibition, SAR follow-up, luminescence reporter (AID 435029)

| SMILES | IC50 |
| --- | --- |
| Cc1c2c(=O)n(-c3nc4ccccc4s3)nc-2cc(O)n1Cc1ccccc1 | 6.58 µM |
| COc1ccc(C(=O)Oc2ccc(C=NNc3ccc(Cl)c(C(=O)O)c3)cc2OC)cc1 | 13 µM |
| N#C/C(=C\c1ccc(O)c([N+](=O)[O-])c1)c1nc2ccccc2s1 | 4.65 µM |
| O=C(O)c1cc(NN=Cc2ccc(-c3ccccc3)cc2)ccc1Cl | 10 µM |
| CC(C)(C)c1cc(-c2csc(Nc3ccccc3)[n+]2Cc2ccc(C(=O)O)cc2)cc(C(C)(C)C)c1O | 3.5 µM |
| O=C(O)c1ccccc1N=Nc1c(O)[nH]c2ccc([N+](=O)[O-])cc12 | > 100 µM (inactive) |
| COc1cc(C=NNc2ccc(Cl)c(C(=O)O)c2)ccc1OC(=O)c1ccc(F)cc1 | 30 µM |
| CCOC(=O)c1sc(N2C(=O)C(O)=C(C(=O)c3ccc(C)o3)C2c2cccc([N+](=O)[O-])c2)nc1C (stereo not given) | 5.1 µM |
| COc1cc(C=NNc2ccc(Cl)c(C(=O)O)c2)ccc1OC(=O)c1ccccc1F | 68 µM |
| O=C(N/N=C/c1c(O)n(C2CCCCC2)c(=S)[nH]c1=O)c1ccccc1O | 11.5 µM |
